Assays:
tau187 [1] = biological target: T1, tau187 (Homo sapiens, UniProt P10636); assay: Turbidity (OD350) assay of heparin-induced aggregation, tau187; format: biochemical; conditions: cinnamaldehyde 50 and 100 uM; tau187 50 uM, heparin 0.11 mg/ml, 23 C
T1 construct: his; made in house; host or cells: bacteria
Protocol: FIG. 15A. […] 50 μM Tau^187 was incubated with 0.11 mg/ml heparin (18 kDa) at 23° C. Aggregation was monitored by turbidity (OD350). Cinnamaldehyde was present at a final concentration of 0, 50 and 100 μM. FIG. 15B. Electron microscopy of tau fibers in the presence of cinnamaldehyde (CA). Tau fibers were visualized by electron microscopy after 5 hrs of aggregation in the presence of: 0 CA (left panel); B) 100 uM CA (right panel). […] FIG. 15 C. Trans-cinnamaldehyde chemical structure. FIG. 16A. […] 50 uM tau187 was incubated with 0.11 mg/mL heparin (18 kDa) at 23° C. Epicatechin was untreated, treated with 10 mM NH4OH for 10 min at 95° C. then neutralized, or treated with 100 U of mushroom tyrosinase (Sigma) for 10 min. Epicatechin was added to the reaction at a final concentration of 25 uM. Fiber formation was monitored by OD 350. FIG. 16B. epicatechin and catechin chemical structures. FIG. 17A. HPLC analysis of proanthocyanidin A-type trimer, A) purified or B) in whole cinnamon extract. The trimer corresponds to the major peak at ˜40 min. Areas underneath the peaks in panels A and B each correspond to 6150 pmoles. […] Fiber formation was monitored by OD 350. Concentrations of A-trimer in pure form and in whole cinnamon extract (CE) were normalized by absorbance measurements of the A-trimer resolved by HPLC. […]

tau187 [2] = biological target: T1, tau187; assay: Electron microscopy of tau187 fibers; format: biochemical; conditions: 100 uM CA, 5 hrs of aggregation
Protocol: FIG. 6. […] Aggregation of tau^187 (50 uM) was initiated with heparin (0.1 mg/ml) in 20 mM NaPO4, pH 7.0. in the presence of: no proanthocyanidin (left panel), or 200 uM purified A-type trimer (right panel). Scale: Bars=500 nm
FIG. 13. Effect of oxidized cinnamon on tau filament formation. […] Left panel: no cinnamon; right panel 10 μM oxidized cinnamon.
FIG. 15A. […] 50 μM Tau^187 was incubated with 0.11 mg/ml heparin (18 kDa) at 23° C. Aggregation was monitored by turbidity (OD350). Cinnamaldehyde was present at a final concentration of 0, 50 and 100 μM. FIG. 15B. Electron microscopy of tau fibers in the presence of cinnamaldehyde (CA). Tau fibers were visualized by electron microscopy after 5 hrs of aggregation in the presence of: 0 CA (left panel); B) 100 uM CA (right panel). […] FIG. 15 C. Trans-cinnamaldehyde chemical structure.
Two hexapeptide motifs in tau are critical for tau aggregation and fiber formation (see, e.g. von Bergen et al., Proc Nad Acad Sci USA 97, 5129-34 (2000)). These motifs lie in the first and second inter-repeat regions of the MT binding domain (FIG. 5), and it is known that engineered truncation fragments of tau that contain these motifs often undergo aggregation into fibers even more efficiently than the full-length molecule (see, e.g. Barghorn et al., Biochemistry 41, 14885-96 (2002)). […]

tau = conditions: literature; cited from earlier work
[3] = literature; cited from earlier work
tau polypeptides = assay: Light scattering measurements (absorbance at 350 nm) of tau aggregation; format: biochemical, human
Protocol: FIG. 11. Dose response of cinnamon (oxidized) on tau aggregation. […] In this experiment, cinnamon was incubated overnight in 10 mM NH4OH.
FIG. 12. Effect of cinnamon A trimer on light scattering of tau.
In one illustrative embodiment of the invention, the effects of cinnamon extract or purified cinnamon proanthocyanidins on tau aggregation can be followed readily in a spectrophotometer by measuring the change in absorbance at 350 nm. The association of tau promoted by heparin causes an increase in absorbance. […] Different buffers and temperatures may be used if desired to study factor influencing aggregation.

T1 sequence (P10636 572-758 limits assumed): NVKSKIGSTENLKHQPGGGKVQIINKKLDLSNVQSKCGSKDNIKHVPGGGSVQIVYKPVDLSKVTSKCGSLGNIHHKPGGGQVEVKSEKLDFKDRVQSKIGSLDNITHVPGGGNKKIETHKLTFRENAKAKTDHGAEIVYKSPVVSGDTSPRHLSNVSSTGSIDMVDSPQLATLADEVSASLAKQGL

Which results are given for O=C/C=C/c1ccccc1 [cinnamaldehyde, Trans-cinnamaldehyde]?
Inhibition of tau187 aggregation (turbidity OD350) (tau187 [1]): Inhibition of tau aggregation; Tau fiber density by EM (tau187 [2]): dramatically reduced

For O=C(O[C@@H]1Cc2c(O)cc(O)cc2O[C@@H]1c1cc(O)c(O)c(O)c1)c1cc(O)c(O)c(O)c1 [epigallocatechin gallate], which “Inhibition of tau aggregation (published studies)” value (tau) is on record?
Its value is “effectively inhibit tau aggregation”.

With Oc1cc(O)c2c(c1)O[C@H](c1ccc(O)c(O)c1)[C@H](O)C2 [epicatechin] as the molecule, how does the “Brain permeability after oral ingestion” value [3] read?
The value was “brain-permeable”.

With Oc1cc(O)c2c(c1)O[C@H](c1ccc(O)c(O)c1)[C@H](O)[C@H]2c1c(O)cc(O)c2c1O[C@H](c1ccc(O)c(O)c1)[C@H](O)C2 [cinnamon proanthocyanidin B2, proanthocyanidin B2] as the molecule, how does the “Inhibition of tau aggregation by light scattering” value (tau polypeptides) read?
Its value is “inhibits the aggregation”.

For Oc1cc(O)c2c(c1)O[C@H](c1ccc(O)c(O)c1)[C@H](O)[C@H]2c1c(O)cc(O)c2c1O[C@H](c1ccc(O)c(O)c1)[C@@H](O)C2 [proanthocyanidin dimer B1], which “Inhibition of tau aggregation (published studies)” value (tau) is on record?
The value was “effectively inhibit tau aggregation”.
